Experimental findings from PubChem BioAssay AID504628 (Vanderbilt High Throughput Screening Facility, 2011) are described below.

For the assay, the target named is Voltage-dependent T-type calcium channel subunit alpha-1H (Homo sapiens) (UniProt O95180). Description: Cav3.2 current block by patch clamp, late-stage follow-up, orthogonal assay for T-type calcium channel inhibitor project, HEK293 cells, whole-cell recording (AID 504628). Conditions: HEK293-Cav3.2 whole-cell patch clamp, Ba2+ current; at 1 µM. In general terms: In patch-clamp work, channel activity is measured electrically.
Voltage-dependent T-type calcium channel subunit alpha-1H (Homo sapiens), sequence (O95180 whole entry, looked up): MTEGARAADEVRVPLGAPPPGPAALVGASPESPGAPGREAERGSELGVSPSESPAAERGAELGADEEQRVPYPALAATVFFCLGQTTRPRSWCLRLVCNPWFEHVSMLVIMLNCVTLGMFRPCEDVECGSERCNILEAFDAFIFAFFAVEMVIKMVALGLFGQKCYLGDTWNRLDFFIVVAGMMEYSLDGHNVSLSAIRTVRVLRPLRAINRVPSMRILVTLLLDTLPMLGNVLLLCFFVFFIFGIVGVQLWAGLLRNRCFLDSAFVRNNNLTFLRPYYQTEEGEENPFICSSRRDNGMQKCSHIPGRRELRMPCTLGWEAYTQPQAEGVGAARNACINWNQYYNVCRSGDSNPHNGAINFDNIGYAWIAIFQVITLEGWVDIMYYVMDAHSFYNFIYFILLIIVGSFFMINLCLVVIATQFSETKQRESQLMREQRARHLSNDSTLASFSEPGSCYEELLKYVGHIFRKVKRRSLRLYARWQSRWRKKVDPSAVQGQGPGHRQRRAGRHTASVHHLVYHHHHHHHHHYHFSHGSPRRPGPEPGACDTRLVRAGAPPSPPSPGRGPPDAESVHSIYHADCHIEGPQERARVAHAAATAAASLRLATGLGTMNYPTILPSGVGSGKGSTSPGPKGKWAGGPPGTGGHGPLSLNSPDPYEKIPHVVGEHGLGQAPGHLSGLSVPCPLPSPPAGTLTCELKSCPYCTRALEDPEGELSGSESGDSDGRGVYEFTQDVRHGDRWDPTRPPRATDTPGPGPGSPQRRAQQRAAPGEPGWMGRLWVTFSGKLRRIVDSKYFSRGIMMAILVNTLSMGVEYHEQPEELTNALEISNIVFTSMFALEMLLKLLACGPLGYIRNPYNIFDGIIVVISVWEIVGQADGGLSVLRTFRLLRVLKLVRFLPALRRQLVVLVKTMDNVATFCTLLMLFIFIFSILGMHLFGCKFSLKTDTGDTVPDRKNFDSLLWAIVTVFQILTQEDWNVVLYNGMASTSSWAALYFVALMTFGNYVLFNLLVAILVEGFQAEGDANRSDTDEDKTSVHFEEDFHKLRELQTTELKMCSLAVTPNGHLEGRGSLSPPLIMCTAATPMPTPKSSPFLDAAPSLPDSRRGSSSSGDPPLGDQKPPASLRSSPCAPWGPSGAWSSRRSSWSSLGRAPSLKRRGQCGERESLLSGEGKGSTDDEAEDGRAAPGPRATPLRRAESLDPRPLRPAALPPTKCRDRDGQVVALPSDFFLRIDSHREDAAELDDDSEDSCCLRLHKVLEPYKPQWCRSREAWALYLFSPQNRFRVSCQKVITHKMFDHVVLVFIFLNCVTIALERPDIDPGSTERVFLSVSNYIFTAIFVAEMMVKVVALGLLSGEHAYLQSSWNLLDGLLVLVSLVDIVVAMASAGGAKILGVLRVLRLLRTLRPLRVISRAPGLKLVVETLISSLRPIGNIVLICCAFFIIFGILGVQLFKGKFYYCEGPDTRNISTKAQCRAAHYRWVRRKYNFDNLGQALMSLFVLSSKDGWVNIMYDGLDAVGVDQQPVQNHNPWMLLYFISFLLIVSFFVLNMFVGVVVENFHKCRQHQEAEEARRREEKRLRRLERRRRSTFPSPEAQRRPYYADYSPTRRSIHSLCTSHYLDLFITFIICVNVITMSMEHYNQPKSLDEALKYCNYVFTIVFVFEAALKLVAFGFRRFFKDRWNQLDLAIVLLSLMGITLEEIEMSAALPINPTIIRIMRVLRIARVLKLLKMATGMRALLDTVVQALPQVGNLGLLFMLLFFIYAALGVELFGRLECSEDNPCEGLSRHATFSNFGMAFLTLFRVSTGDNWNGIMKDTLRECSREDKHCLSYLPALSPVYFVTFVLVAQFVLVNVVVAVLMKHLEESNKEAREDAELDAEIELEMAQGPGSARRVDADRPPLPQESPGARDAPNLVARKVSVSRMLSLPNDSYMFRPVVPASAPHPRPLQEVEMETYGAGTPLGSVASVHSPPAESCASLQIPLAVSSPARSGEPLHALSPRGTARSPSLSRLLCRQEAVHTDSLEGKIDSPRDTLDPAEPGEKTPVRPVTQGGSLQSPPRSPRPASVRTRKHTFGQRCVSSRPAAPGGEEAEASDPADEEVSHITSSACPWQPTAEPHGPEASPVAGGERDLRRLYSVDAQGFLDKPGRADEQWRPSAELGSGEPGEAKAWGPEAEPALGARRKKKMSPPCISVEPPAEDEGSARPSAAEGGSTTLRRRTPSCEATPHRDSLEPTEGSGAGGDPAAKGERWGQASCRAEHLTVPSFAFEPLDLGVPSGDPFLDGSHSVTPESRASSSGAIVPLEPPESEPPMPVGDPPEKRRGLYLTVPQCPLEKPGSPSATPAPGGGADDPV

For the molecule `CC(C)(C)CCN1C[C@@H]2C(CNC(=O)c3cc(Cl)cc(Cl)c3)[C@@H]2C1` (stereo partly specified), the current is -1010 pA.
